Like-named read-outs stand apart in the source and are kept apart here.

This is an account of results in PMC12136037, “Type II kinase inhibitors that target Parkinson’s disease–associated LRRK2” (Science Advances, 2025).

Experiment in all cases: DSF 100 kinase selectivity screen;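 as to dTm: compound tested at 20 µM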
Format in all cases: binding

The test system of test [1] is ~100 representative kinases. Conditions: for dTm: Protein BRD, average of three replicates; for S (5 K) / share of screened kinases stabilized: DSF selectivity panel, thermal shift >5 K. The procedure, abridged:
(§1)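 Each kinase domain, at 2 μM, is mixed with 20 μM test compound and SYPRO Orange in Hepes (20 mM, pH 7.5) with 500 mM NaCl. Temperature is then raised at 3°C/min and fluorescence-monitored unfolding yields the melting temperature change, ΔTm in degrees Celsius.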

Test [2] concerns the target T1, ~100 representative kinases (Homo sapiens, UniProt Q00532).
T1 construct: Recombinant protein kinase domains with a concentration of 2 μM
Conditions: Protein CDKL1; average of three replicates. The procedure, abridged:
as §1

Test [3] deals with T2, ~100 representative kinases (Homo sapiens, UniProt Q92630).
T2 construct: Recombinant protein kinase domains with a concentration of 2 μM
T2 sequence (Q92630 1-601): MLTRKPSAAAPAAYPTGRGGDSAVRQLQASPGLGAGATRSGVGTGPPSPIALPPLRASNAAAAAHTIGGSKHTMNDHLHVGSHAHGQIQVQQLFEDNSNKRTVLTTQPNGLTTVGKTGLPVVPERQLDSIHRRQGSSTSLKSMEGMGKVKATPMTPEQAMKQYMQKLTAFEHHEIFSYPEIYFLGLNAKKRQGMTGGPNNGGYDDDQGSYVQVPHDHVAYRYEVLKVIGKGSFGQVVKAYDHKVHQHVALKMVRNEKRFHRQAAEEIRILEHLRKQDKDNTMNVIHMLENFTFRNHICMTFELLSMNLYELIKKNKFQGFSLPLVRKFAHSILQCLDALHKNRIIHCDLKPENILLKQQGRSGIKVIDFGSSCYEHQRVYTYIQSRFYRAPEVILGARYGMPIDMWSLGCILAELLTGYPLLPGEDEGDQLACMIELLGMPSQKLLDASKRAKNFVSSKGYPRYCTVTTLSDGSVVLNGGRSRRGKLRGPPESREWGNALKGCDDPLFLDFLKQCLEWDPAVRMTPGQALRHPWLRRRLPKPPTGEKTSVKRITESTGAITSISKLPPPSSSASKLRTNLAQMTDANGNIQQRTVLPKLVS
Conditions: Protein DYRK2; average of three replicates. The procedure, abridged: as §1

In test [4] the target is T3, ~100 representative kinases (Homo sapiens, UniProt Q96PY6).
T3 construct: Recombinant protein kinase domains with a concentration of 2 μM
T3 sequence (Q96PY6 1-1258): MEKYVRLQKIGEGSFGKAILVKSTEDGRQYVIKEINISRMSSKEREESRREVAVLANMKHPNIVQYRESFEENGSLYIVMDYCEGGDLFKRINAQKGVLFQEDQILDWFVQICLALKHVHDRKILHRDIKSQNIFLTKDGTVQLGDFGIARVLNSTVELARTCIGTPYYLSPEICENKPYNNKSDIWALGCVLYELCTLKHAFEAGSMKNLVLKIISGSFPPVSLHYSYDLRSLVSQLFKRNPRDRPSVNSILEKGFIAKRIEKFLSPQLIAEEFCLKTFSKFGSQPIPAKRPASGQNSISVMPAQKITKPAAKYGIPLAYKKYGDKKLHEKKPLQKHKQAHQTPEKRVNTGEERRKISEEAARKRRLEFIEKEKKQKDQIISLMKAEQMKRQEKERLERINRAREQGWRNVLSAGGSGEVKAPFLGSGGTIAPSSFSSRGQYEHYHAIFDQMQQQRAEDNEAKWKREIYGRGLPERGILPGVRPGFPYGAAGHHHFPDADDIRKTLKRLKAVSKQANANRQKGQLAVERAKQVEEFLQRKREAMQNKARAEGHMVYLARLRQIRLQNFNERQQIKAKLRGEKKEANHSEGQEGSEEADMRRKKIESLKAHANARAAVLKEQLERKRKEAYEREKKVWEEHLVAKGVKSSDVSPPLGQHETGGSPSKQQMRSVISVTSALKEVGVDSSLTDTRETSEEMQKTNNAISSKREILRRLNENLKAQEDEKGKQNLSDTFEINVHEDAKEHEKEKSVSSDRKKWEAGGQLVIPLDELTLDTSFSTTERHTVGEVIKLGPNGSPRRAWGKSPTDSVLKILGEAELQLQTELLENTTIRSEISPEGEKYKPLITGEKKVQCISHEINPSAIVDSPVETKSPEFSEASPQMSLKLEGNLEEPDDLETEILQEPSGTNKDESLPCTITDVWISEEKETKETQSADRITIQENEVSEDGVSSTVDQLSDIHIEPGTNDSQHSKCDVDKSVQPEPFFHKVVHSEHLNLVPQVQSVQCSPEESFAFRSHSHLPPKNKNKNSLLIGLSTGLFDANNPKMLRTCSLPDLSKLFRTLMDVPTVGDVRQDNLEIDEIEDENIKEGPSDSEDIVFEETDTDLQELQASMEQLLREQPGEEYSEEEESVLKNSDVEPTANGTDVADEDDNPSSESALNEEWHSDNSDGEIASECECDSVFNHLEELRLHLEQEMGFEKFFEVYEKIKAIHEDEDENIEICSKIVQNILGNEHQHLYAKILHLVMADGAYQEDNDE
The settings on record: protein NEK1; average of three replicates. A digest of the protocol: as §1

Where [5] appears, read: number of kinases with thermal shift >5 K divided by total number of kinases screened.
Setting [6] is: number of proteins of the DSF panel with dTm >5K.
The mark [7] stands for this setting: selectivity score: # >5K divided by # of proteins tested in the DSF panel.

T1 sequence (Q00532 whole entry, the tested form may be a part): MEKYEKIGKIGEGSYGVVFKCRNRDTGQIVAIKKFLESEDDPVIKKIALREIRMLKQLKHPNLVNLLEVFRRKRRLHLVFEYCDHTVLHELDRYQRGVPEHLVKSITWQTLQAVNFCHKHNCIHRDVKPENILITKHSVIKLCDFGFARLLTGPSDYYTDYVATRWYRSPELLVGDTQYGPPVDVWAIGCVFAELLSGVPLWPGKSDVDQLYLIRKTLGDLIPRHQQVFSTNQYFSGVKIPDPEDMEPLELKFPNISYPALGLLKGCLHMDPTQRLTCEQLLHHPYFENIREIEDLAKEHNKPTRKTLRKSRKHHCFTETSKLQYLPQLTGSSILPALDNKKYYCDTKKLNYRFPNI

Turning to `COc1cc(NC(=O)C2(C(=O)Nc3cccc(-c4c[nH]c5ncnc(N6CCOCC6)c45)c3)CC2)ccc1F` [Compound 21], the dTm is reported as -1.43 K in test [1], 3.09 K in test [2], 8.53 K in test [3] and -0.0539 K in test [4]. For the same compound, the results for the “S(5K)” value in test [1] (setting [5]) and in test [1] (setting [7]) were 0.28 and 0.280, respectively. For the same compound, the “# >5K” value in test [1] (setting [6]) is 28.

Take `CC(C)(C)c1cccc(NC(=O)C2(C(=O)Nc3cccc(-c4c[nH]c5ncnc(N6CCOCC6)c45)c3)CC2)c1` [Compound 22]: the dTm is 1.52 K in test [1], 4.95 K in test [2], 5.80 K in test [3] and -1.56 K in test [4]. The “S(5K)” value is recorded as 0.22 in test [1] (setting [5]) and 0.221 in test [1] (setting [7]). For the same compound, the “# >5K” value in test [1] (setting [6]) was determined as 23.

As for `O=C(Nc1cccc(-c2c[nH]c3ncnc(N4CCOCC4)c23)c1)C1(C(=O)Nc2ccc(F)cc2F)CC1` [Compound 23], the “S (5 K) / share of screened kinases stabilized” value (“S (5 K) / share” below) in test [1] is 16%. Also, the dTm was -1.02 K in test [1], 1.97 K in test [2], 3.88 K in test [3] and -0.14 K in test [4]. Also, the “S(5K)” value is given as 0.16 in test [1] (setting [5]) and 0.160 in test [1] (setting [7]). Besides, in test [1] (setting [6]), the “# >5K” value was determined as 16.

For `Cc1cc(F)ccc1NC(=O)C1(C(=O)Nc2cccc(-c3c[nH]c4ncnc(N5CCOCC5)c34)c2)CC1` [Compound 24], the dTm in test [1] is reported as -0.87 K; in test [2], 1.46 K; in test [3] it was 1.96 K; in test [4], -0.14 K. Besides, the “S(5K)” value is 0.12 in test [1] (setting [5]) and 0.120 in test [1] (setting [7]). Moreover, the “# >5K” value in test [1] (setting [6]) is reported as 12.

On to `O=C(Nc1cccc(-c2c[nH]c3ncnc(N4CCOCC4)c23)c1)C1(C(=O)Nc2cc(Br)c(F)cc2F)CC1` [Compound 25], for which the dTm in test [1] is on record as 1.03 K; in test [2] it was 1.69 K; in test [3], 2.68 K; in test [4], -6.30 K. For the same compound, the “S(5K)” value in test [1] (setting [5]) is given as 0.10; in test [1] (setting [7]), 0.096. For the same compound, the “# >5K” value in test [1] (setting [6]) was 10.

Regarding `O=C(Nc1cccc(-c2c[nH]c3ncnc(N4CCOCC4)c23)c1)C1(C(=O)Nc2ccc(F)c(Br)c2F)CC1` [Compound 26], in test [1], the “S (5 K) / share” value amounted to 14%. Besides, the dTm in test [1] is 1.43 K; in test [2], 1.85 K; in test [3], 4.70 K; in test [4] it was -0.27 K. For the same compound, the “S(5K)” value in test [1] (setting [5]) was found to be 0.14; in test [1] (setting [7]) it was 0.144. Besides, the “# >5K” value in test [1] (setting [6]) came to 15.

Consider `O=C(Nc1cc(F)cc(Br)c1)C1(C(=O)Nc2cccc(-c3c[nH]c4ncnc(N5CCOCC5)c34)c2)CC1` [Compound 27], for which the dTm in test [1] is given as 1.43 K; in test [2], 0.61 K; in test [3], 3.64 K; in test [4] it was -1.82 K. In addition, the “S(5K)” value in test [1] (setting [5]) worked out at 0.09; in test [1] (setting [7]), 0.087. For the same compound, the “# >5K” value in test [1] (setting [6]) is 9.

Turning to `CC(C)(C)c1cc(NC(=O)Nc2cccc(-c3c[nH]c4ncnc(N5CCOCC5)c34)c2)n(-c2ccc3ncccc3c2)n1` [Compound 28], the “S (5 K) / share” value in test [1] came to 49%. The dTm is listed as -0.0106 K in test [1], 8.21 K in test [2], 10.25 K in test [3] and 0.13 K in test [4]. Also, the entries for the “S(5K)” value in test [1] (setting [5]) and in test [1] (setting [7]) were 0.49 and 0.490, respectively. Besides, the “# >5K” value in test [1] (setting [6]) amounted to 49.

Take `Cc1ccc(-n2nc(C(C)(C)C)cc2NC(=O)Nc2cccc(-c3c[nH]c4ncnc(N5CCOCC5)c34)c2)cc1` [Compound 29]: the dTm is -2.22 K in test [1], 10.84 K in test [2], 9.71 K in test [3] and -1.22 K in test [4]. Besides, the “S(5K)” value in test [1] (setting [5]) stood at 0.36; in test [1] (setting [7]), 0.356. Moreover, the “# >5K” value in test [1] (setting [6]) was 36.

As to `Cc1ccc(-n2nc(C(C)(C)C)cc2NC(=O)Nc2cccc(-c3c[nH]c4nc(Cl)nc(N5CCOCC5)c34)c2)cc1` [Compound 30], the “S (5 K) / share” value in test [1] was 10%. The dTm in test [1] was -1.65 K; in test [2], 3.90 K; in test [3] it was 3.48 K; in test [4] it was -0.84 K. Also, the figures for the “S(5K)” value in test [1] (setting [5]) and in test [1] (setting [7]) were 0.10 and 0.099, respectively. Moreover, the “# >5K” value in test [1] (setting [6]) came out at 10.

As for `CC(=O)N1CCN(c2nc(Cl)nc3[nH]cc(-c4cccc(NC(=O)Nc5cc(C(C)(C)C)nn5-c5ccc(C)cc5)c4)c23)CC1` [Compound 31], the dTm in test [1] is reported as -3.84 K; in test [2], 5.56 K; in test [3] it was 6.61 K; in test [4] it was -1.20 K. Further, the “S(5K)” value in test [1] (setting [5]) is recorded as 0.15; in test [1] (setting [7]) it was 0.149. For the same compound, the “# >5K” value in test [1] (setting [6]) is on record as 15.

With `CCSc1nc(NC)c2c(-c3cccc(NC(=O)Nc4cc(C(C)(C)C)nn4-c4ccc(C)cc4)c3)c[nH]c2n1` [Compound 32], the dTm in test [1] is -0.35 K; in test [2], 9.64 K; in test [3], 6.49 K; in test [4] it was -1.34 K. In test [1] (Rebastinib 96 kinases screened, RN341 103 kinases screened), the “number of kinases stabilized (>5 K)” value is reported as 10. Besides, the results for the “S(5K)” value in test [1] (setting [5]) and in test [1] (setting [7]) were 0.10 and 0.097, respectively. Further, the “# >5K” value in test [1] (setting [6]) came to 10.

With `COc1cc(C(=O)N2CCOCC2)c(F)cc1Nc1nc(N(C)C)c2c(Cl)c[nH]c2n1` [Compound 36], the dTm is reported as -0.29 K in test [1], 0.37 K in test [2], 5.31 K in test [3] and 0.22 K in test [4]. In addition, the results for the “S(5K)” value in test [1] (setting [5]) and in test [1] (setting [7]) were 0.14 and 0.139, respectively. The “# >5K” value in test [1] (setting [6]) is 14.

Take `COc1cc(S(C)(=O)=O)ccc1Nc1nc(N(C)C)c2c(Cl)c[nH]c2n1` [Compound 37]: the dTm worked out at 0.52 K in test [1], 0.44 K in test [2], 1.57 K in test [3] and 0.73 K in test [4]. Moreover, the “S(5K)” value in test [1] (setting [5]) is recorded as 0.05; in test [1] (setting [7]) it was 0.050. Also, the “# >5K” value in test [1] (setting [6]) was 5.

With `COc1cc2c(Oc3ccc(NC(=O)C4(C(=O)Nc5ccc(F)cc5)CC4)cc3F)ccnc2cc1OCCCN1CCOCC1` [Foretinib, reference compound], the “# >5K” value in test [1] is reported as 30. Further, the “S(5K)” value in test [1] turned out to be 0.300. Besides, the results for the dTm in test [2], in test [3] and in test [4] were 1.22 K, 4.19 K and 0.60 K, respectively.
